Measurements from patent US20110151258A1, “PREPARATION OF RANOLAZINE” (DR. REDDY'S LABORATORIES LTD., priority 2008, published 2011).

Key:
Type in all cases: physicochemical
[1] = Specific surface area by BET method
Source text: (§1) In an embodiment, the present application provides a pharmaceutical composition comprising ranolazine having a specific surface area more than about 0.1 m^2/g, or more than about 0.5 m^2/g, or more than about 1 m^2/g, or more than about 2 m^2/g, or more than about 3 m^2/g, or more than about 5 m^2/g. “Specific surface area” as used herein, unless otherwise defined refers to the total particle surface […]. The specific surface area of ranolazine of the present invention may be measured by a BET (Brunauer, Emmett and Teller) specific surface method, such as using a Micromeritics Gemini surface area analyzer, model 2365. Samples for analysis are degassed at 40° C. under reduced pressure and the determination of the adsorption of nitrogen gas at 77° K may be measured for relative pressures in the range of 0.05-0.3. Specific surface area and span of ranolazine of the present application may be measured by using light scattering equipment, such as, for example, a Malvern Master Sizer 2000 (helium neon laser source, ranolazine suspended in light liquid paraffin, size range: 0.01 μm to 3000 μm).

[2] = Specific surface area and span by light scattering (Malvern method); details: for span: particle size distribution span; for Specific surface area: method not stated at the place
Source text: as §1

[3] = Particle size distribution by light scattering (Malvern Master Sizer 2000); details: for Particle size distribution: D10: 10th volume percentile particle size; for Particle size distribution: D50: 50th volume percentile particle size; for Particle size distribution: D90: 90th volume percentile particle size
Source text: Particle size distributions of ranolazine particles may be measured by any technique known in the art. For example, particle size distributions of ranolazine particles may be measured using light scattering equipment, such as, for example, a Malvern Master Sizer 2000 from Malvern Instruments Limited, Malvern, Worcestershire, United Kingdom (helium neon laser source, ranolazine suspended in light liquid paraffin, size range: 0.01 μm to 3000 μm).

[4] = Bulk density (USP Test 616, method 2)
Source text: In an embodiment, the present application provides ranolazine having bulk densities less than about 0.8 g/mL, or less than about 0.5 g/mL, or less than about 0.3 g/mL. Bulk density may be determined using Test 616 “Bulk Density and Tapped Density,” as in United States Pharmacopoeia 29, United States Pharmacopeial Convention, Inc., Rockville, Md., 2005, in method 2.

specific surface area by BET method [1] [m^2/g]	Specific surface area by Malvern method [2] [m^2/g]	span [2]	Particle size distribution: D10 [3] [μm]	Particle size distribution: D50 [3] [μm]	Particle size distribution: D90 [3] [μm]	Specific surface area [2] [m^2/g]	bulk density after tapping ([4]; after tapping) [g/mL]	bulk density before tapping ([4]; before tapping) [g/mL]	Structure (SMILES)
–	–	1.611	4.420	16.147	30.439	0.705	0.477	0.353	COc1ccccc1OCC(O)CN1CCN(CC(=O)Nc2c(C)cccc2C)CC1 (stereo not shown) [Example 18, Ranolazine]
–	–	1.823	13.262	41.574	89.060	0.291	–	–	COc1ccccc1OCC(O)CN1CCN(CC(=O)Nc2c(C)cccc2C)CC1 (stereo not shown) [Example 19, Ranolazine]

Further lines, the compound ahead of its results:

Structure (SMILES)	specific surface area by BET method [1] [m^2/g]	Specific surface area by Malvern method [2] [m^2/g]	span [2]	Particle size distribution: D10 [3] [μm]	Particle size distribution: D50 [3] [μm]	Particle size distribution: D90 [3] [μm]	Specific surface area [2] [m^2/g]	bulk density after tapping ([4]; after tapping) [g/mL]	bulk density before tapping ([4]; before tapping) [g/mL]
COc1ccccc1OCC(O)CN1CCN(CC(=O)Nc2c(C)cccc2C)CC1 (stereo not shown) [Example 16, Ranolazine]	0.46	1.63	1.817	5.026	18.770	39.137	–	–	–
COc1ccccc1OCC(O)CN1CCN(CC(=O)Nc2c(C)cccc2C)CC1 (stereo not shown) [Example 15, Ranolazine]	–	–	2.813	5.272	18.656	57.748	0.655	–	–
COc1ccccc1OCC(O)CN1CCN(CC(=O)Nc2c(C)cccc2C)CC1 (stereo not shown) [Example 14, Ranolazine]	–	–	1.833	6.311	22.490	47.539	0.539	–	–
COc1ccccc1OCC(O)CN1CCN(CC(=O)Nc2c(C)cccc2C)CC1 (stereo not shown) [Example 17, Ranolazine]	2.54	1.99	1.905	1.324	5.140	11.116	–	–	–
